Source: ChEMBL document CHEMBL1130761, “Synthesis of 2,3,4a,11b-tetrahydro-oxazino[2,3-c]benzopyran-9-carbonitriles as ATP-sensitive potassium channel openers” (Bioorg Med Chem Lett, 1998)

How the values were obtained:
Format in all cases: functional
Rattus norvegicus [1] = species: Rattus norvegicus; assay: Mechanoinhibitory activity in presence of Glibenclamide (1 uM) was evaluated in KCl stimulated rat detrusor strip
Rattus norvegicus [2] = species: Rattus norvegicus; assay: Mechanoinhibitory activity was evaluated by spontaneous contraction of rat portal vein.
Rattus norvegicus [3] = species: Rattus norvegicus; assay: Mechanoinhibitory activity was evaluated in KCl stimulated rat detrusor strip
[4] = Mechanoinhibitory activity was evaluated by the ratio of IC50(portal vein)/IC50(bladder)
Rattus norvegicus [5] = species: Rattus norvegicus; assay: Mechanoinhibitory activity in presence of Glibenclamide (1 uM) was evaluated by spontaneous contraction of rat portal vein.
Rattus norvegicus [6] = species: Rattus norvegicus; assay: Mechanoinhibitory activity was evaluated by spontaneous contraction of rat portal vein; + indicates enhancement in spontaneous contraction was observed
Rattus norvegicus [7] = species: Rattus norvegicus; assay: Mechanoinhibitory activity (bladder-selective potassium channel opening activity) was evaluated in KCl stimulated rat detrusor strip

SMILES | IC50 (Rattus norvegicus [1]) [µM] | IC50 (Rattus norvegicus [2]) [µM] | IC50 (Rattus norvegicus [3]) [µM] | Ratio [4] | IC50 (Rattus norvegicus [5]) [µM] | Effect on spontaneous contraction (Rattus norvegicus [6]) | IC50 (Rattus norvegicus [7]) [µM]
CC(=O)N1CCO[C@@H]2[C@H]1c1cc(C#N)ccc1OC2(C)C | 53.2 | 2.7 | 8.8 | 0.31 | 60.9 | – | –
CC1(C)Oc2ccc(C#N)cc2[C@H]2NC(=O)CO[C@@H]21 | 56.3 | – | 53.1 | – | – | enhancement in spontaneous contraction | –
CN1C(=O)CO[C@H]2[C@@H]1c1cc(C#N)ccc1OC2(C)C | 129 | 26.2 | 65.7 | 0.4 | 28.3 | – | –
CC(C)C(=O)N1CCO[C@H]2[C@H]1c1cc(C#N)ccc1OC2(C)C | 244 | 127 | 104 | 1.22 | – | – | –
CN1C(=O)CO[C@H]2[C@H]1c1cc(C#N)ccc1OC2(C)C | 79.5 | 50.2 | 43.8 | 1.15 | 72.8 | – | –
CCC(=O)N1CCO[C@@H]2[C@H]1c1cc(C#N)ccc1OC2(C)C | 141 | 20.1 | 51.8 | 0.39 | 52.6 | – | –
CC(C)C(=O)N1CCO[C@@H]2[C@H]1c1cc(C#N)ccc1OC2(C)C | 268 | 18.4 | 56.4 | 0.33 | 58.9 | – | –
CCC(=O)N1CCO[C@H]2[C@H]1c1cc(C#N)ccc1OC2(C)C | 318 | 64.9 | 47.2 | 1.38 | 92.6 | – | –
CC1(C)Oc2ccc(C#N)cc2[C@@H]2[C@H]1OCCN2C=O | 279 | 62.8 | 51.8 | 1.21 | 117 | – | –
CC1(C)Oc2ccc(C#N)cc2[C@@H]2[C@@H]1OCCN2C(=O)c1ccccc1 | 123 | – | 66 | – | – | enhancement in spontaneous contraction | –
CC(=O)N1CCO[C@H]2[C@H]1c1cc(C#N)ccc1OC2(C)C | 153 | 5.9 | 70.1 | 0.08 | 79.3 | – | –
CC1(C)Oc2ccc(C#N)cc2[C@@H]2[C@@H]1OCC(=O)N2Cc1ccccc1 | 130 | – | 68.2 | – | – | enhancement in spontaneous contraction | –
CC1(C)Oc2ccc(C#N)cc2[C@@H]2[C@H]1OCCN2C(=O)c1ccccc1 | 32.8 | 34.5 | – | 4.23 | 45.5 | – | 8.15
CC1(C)Oc2ccc(C#N)cc2[C@@H]2[C@@H]1OCCN2C=O | 158 | – | 152 | – | – | enhancement in spontaneous contraction | –
CC1(C)Oc2ccc(C#N)cc2[C@@H](N2CCCC2=O)[C@@H]1O [LEVCROMAKALIM] | 8.7 | 0.13 | 0.82 | 0.16 | 4.9 | – | –
